Assay results taken from patent US9321790B2, “Pyrimidinone derivatives as antimalarial agents” (SANOFI, priority 2012, dated 2016).
Like-named read-outs stand apart in the source and are kept apart here.

How the values were obtained:
[1] = tested on: Plasmodium falciparum (strain NF54); assay: Antimalarial activity test: growth of Plasmodium falciparum in infected human erythrocytes, 3H-hypoxanthine incorporation; assay type: cell-based; details: strain NF54 sensitive to chloroquine, 72 h total incubation
Summary of the method: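 Chloroquine-sensitive NF54 parasites in human erythrocytes (1.25% hematocrit, 0.15% parasitemia) were grown in hypoxanthine-free RPMI 1640 with HEPES and Albumax II, with compound in twofold serial dilution, at 37 °C under 93% N2/4% CO2/3% O2. After 48 h, 3H-hypoxanthine (0.5 μCi) was added for 24 h. Scintillation counts versus drug-free control gave IC50.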

human PI3Kα = human PI3Kα (Homo sapiens (Human), UniProt P42336); assay: Human PI3Kα activity test (luciferin/luciferase ATP consumption, KinaseGlo); assay type: biochemical
Chain of human PI3Kα (P42336 whole entry): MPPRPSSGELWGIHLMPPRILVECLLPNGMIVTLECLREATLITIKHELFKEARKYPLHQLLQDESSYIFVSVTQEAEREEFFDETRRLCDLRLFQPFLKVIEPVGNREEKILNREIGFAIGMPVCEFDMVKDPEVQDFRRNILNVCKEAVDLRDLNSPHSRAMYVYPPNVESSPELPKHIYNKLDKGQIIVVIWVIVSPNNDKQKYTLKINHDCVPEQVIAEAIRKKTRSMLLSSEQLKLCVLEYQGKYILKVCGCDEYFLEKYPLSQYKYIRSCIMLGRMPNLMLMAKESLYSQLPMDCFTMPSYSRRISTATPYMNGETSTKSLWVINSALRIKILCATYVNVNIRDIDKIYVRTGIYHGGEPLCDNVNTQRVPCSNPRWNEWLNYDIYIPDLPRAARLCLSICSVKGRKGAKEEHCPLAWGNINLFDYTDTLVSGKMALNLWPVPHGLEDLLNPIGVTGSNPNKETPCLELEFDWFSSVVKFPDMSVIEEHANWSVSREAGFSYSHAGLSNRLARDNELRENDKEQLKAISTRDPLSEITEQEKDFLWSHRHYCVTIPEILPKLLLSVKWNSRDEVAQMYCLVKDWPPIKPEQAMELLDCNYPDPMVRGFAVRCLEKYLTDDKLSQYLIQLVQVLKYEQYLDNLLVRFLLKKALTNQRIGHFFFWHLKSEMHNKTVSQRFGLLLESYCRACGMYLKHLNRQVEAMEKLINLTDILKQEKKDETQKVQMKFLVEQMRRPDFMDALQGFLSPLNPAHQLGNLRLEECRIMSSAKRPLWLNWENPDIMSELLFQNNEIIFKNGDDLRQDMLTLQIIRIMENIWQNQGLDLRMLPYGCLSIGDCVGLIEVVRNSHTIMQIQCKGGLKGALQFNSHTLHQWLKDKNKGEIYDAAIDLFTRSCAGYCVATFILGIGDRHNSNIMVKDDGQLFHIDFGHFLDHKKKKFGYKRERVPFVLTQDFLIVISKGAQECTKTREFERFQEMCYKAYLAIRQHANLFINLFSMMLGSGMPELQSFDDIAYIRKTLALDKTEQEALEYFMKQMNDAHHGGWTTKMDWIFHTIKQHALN
Chain of human PI3Kα (P27986 whole entry partner): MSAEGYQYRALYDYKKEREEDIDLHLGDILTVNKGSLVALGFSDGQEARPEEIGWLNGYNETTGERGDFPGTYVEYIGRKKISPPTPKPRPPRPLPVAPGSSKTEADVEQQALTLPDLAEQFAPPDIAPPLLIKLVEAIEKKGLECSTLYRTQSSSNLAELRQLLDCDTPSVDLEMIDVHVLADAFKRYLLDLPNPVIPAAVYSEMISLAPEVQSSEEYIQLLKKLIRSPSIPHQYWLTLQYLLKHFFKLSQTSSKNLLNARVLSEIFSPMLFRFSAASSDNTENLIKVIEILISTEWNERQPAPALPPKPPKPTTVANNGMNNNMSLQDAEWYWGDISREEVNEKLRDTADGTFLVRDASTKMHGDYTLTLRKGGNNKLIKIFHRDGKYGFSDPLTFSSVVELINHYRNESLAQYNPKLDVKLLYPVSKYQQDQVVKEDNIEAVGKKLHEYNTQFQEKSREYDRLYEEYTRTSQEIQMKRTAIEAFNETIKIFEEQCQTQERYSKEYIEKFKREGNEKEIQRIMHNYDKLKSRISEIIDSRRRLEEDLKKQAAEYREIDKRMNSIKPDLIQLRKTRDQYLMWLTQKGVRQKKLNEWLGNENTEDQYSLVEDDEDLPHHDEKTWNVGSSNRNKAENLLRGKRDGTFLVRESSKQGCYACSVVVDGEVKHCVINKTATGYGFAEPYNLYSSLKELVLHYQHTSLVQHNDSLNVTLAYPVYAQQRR
Description: The test uses a luciferin/luciferase system to measure the concentration of ATP and its consumption during the enzymatic reaction.
After 90 minutes, the reaction is quenched by adding 20 μl/well of KinaseGlo reagent (Promega V6713). After 10 minutes in the dark, the luminescence is read using a PHERAStar microplate reader (reading at 0.8 sec/well).

[2] = Plasmodium falciparum, Erythrocyte
[3] = PI3Kα (p110α/p85α), 50 μM PIP2, 2 μM ATP, 90 minutes, read-out: IC50 Human PI3Kα

Row | Compound | IC50 [1, 2] [nM] | IC50 (human PI3Kα; [3]) [nM] | IC50 [1] [nM] | IC50 (human PI3Kα) [nM]
1 | Cc1c(C(=O)CN2c3nc(N4C[C@@H]5C[C@H]4CO5)cc(=O)n3CC[C@H]2C(F)(F)F)cnc(N)c1C [Compound 36, (8S)-9-[2-(6-Amino-4,5-dimethylpyrid-3-yl)-2-oxoethyl]-2-(1S,4S)-2-oxa-5-azabicyclo[2.2.1]hept-5-yl-8-trifluoromethyl-6,7,8,9-tetrahydropyrimido[1,2-a]pyrimidin-4-one] | 240 | > 10000 |  | 
2 | O=c1cc(N2C[C@@H]3C[C@H]2CO3)nc2n1CC[C@@H](C(F)(F)F)N2CCC1(O)CCCC1 [Compound 100, (8S)-9-[2-(1-Hydroxycyclopentyl)ethyl]-2-(1S,4S)-2-oxa-5-azabicyclo[2.2.1]hept-5-yl-8-trifluoromethyl-6,7,8,9-tetrahydropyrimido[1,2-a]pyrimidin-4-one] | 9 | 1980 |  | 
3 | O=C(CN1c2nc(N3C[C@@H]4C[C@H]3CO4)cc(=O)n2CC[C@H]1C(F)(F)F)c1ccc(OCCF)c(F)c1 [Compound 64, (8S)-9-{2-[3-Fluoro-4-(2-fluoroethoxyl)phenyl]-2-oxoethyl}-2-(1S,4S)-2-oxa-5-azabicyclo[2.2.1]hept-5-yl-8-trifluoromethyl-6,7,8,9-tetrahydropyrimido[1,2-a]pyrimidin-4-one] | 39 | > 10000 |  | 
4 | Cc1n[nH]c(C)c1CCN1c2nc(N3C[C@@H]4C[C@H]3CO4)cc(=O)n2CC[C@H]1C(F)(F)F [Compound 27, (8S)-9-[2-(3,5-Dimethyl-1H-pyrazol-4-yl)ethyl]-2-(1S,4S)-2-oxa-5-azabicyclo[2.2.1]hept-5-yl-8-trifluoromethyl-6,7,8,9-tetrahydropyrimido[1,2-a]pyrimidin-4-one] | < 4.5 | 1530 |  | 
5 | Cc1cc(C(=O)CN2c3nc(N4C[C@@H]5C[C@H]4CO5)cc(=O)n3CC[C@H]2C(F)(F)F)cnc1N [Compound 31, (8S)-9-[2-(6-Amino-5-methylpyrid-3-yl)-2-oxoethyl]-2-(1S,4S)-2-oxa-5-azabicyclo[2.2.1]hept-5-yl-8-trifluoromethyl-6,7,8,9-tetrahydropyrimido[1,2-a]pyrimidin-4-one] | 75 | 6350 |  | 
6 | Cc1n[nH]c(C)c1CCN1c2nc(N3C[C@@H]4C[C@H]3CO4)cc(=O)n2C[C@@]1(C)C(F)(F)F [Compound 28, 1-[2-(3,5-Dimethyl-1H-pyrazol-4-yl)ethyl]-2-methyl-7-(1S,4S)-2-oxa-5-azabicyclo[2.2.1]hept-5-yl-2-((S)-trifluoromethyl)-2,3-dihydro-1H-imidazo[1,2-a]pyrimidin-5-one] |  | 2260 | 9 | 
7 | O=C(CN1c2nc(N3C[C@@H]4C[C@H]3CO4)cc(=O)n2CC[C@H]1C(F)(F)F)c1ccc(C(F)(F)F)nc1 [Compound 33, (8S)-2-(1S,4S)-2-Oxa-5-azabicyclo[2.2.1]hept-5-yl-9-[2-oxo-2-(6-trifluoromethylpyrid-3-yl)ethyl]-8-trifluoromethyl-6,7,8,9-tetrahydropyrimido[1,2-a]pyrimidin-4-one] |  | > 10000 | 4000 | 
8 | CC(=O)N1CCC(CN2c3nc(N4C[C@@H]5C[C@H]4CO5)cc(=O)n3CC[C@H]2C(F)(F)F)CC1 [Compound 94, (8S)-9-(1-Acetylpiperid-4-ylmethyl)-2-(1S,4S)-2-oxa-5-azabicyclo[2.2.1]hept-5-yl-8-trifluoromethyl-6,7,8,9-tetrahydropyrimido[1,2-a]pyrimidin-4-one] | 9 | 130 |  | 
9 | O=C(CN1c2nc(N3C4CCC3COC4)cc(=O)n2CC[C@H]1C(F)(F)F)c1cccnc1 [Compound 85, (8S)-2-(3-Oxa-8-azabicyclo[3.2.1]oct-8-yl)-9-(2-oxo-2-pyrid-3-ylethyl)-8-trifluoromethyl-6,7,8,9-tetrahydropyrimido[1,2-a]pyrimidin-4-one] | 150 |  |  | > 10000
10 | O=CN1CCC(C(=O)CN2c3nc(N4C[C@@H]5C[C@H]4CO5)cc(=O)n3CC[C@H]2C(F)(F)F)CC1 [Compound 118, 4-[2-((S)-8-(1S,4S)-2-Oxa-5-azabicyclo[2.2.1]hept-5-yl-6-oxo-2-trifluoromethyl-3,4-dihydro-2H,6H-pyrimido[1,2-a]pyrimidin-1-yl)acetyl]piperidine-1-carbaldehyde] |  | > 10000 | 15 | 

The next lines start with results.

Row | IC50 [1, 2] [nM] | IC50 (human PI3Kα; [3]) [nM] | IC50 [1] [nM] | Compound | IC50 (human PI3Kα) [nM]
11 | 8 | 2440 |  | CCNC(=O)Nc1ccc(CCN2c3nc(N4C[C@@H]5C[C@H]4CO5)cc(=O)n3C[C@@]2(C)C(F)(F)F)cc1 [Compound 24, 1-ethyl-3-(4-{2-[(1S,4S)-2-methyl-7-2-oxa-5-azabicyclo[2.2.1]hept-5-yl-5-oxo-2-((S)-trifluoromethyl)-2,3-dihydro-5H-imidazo[1,2-a]pyrimidin-1-yl]ethyl}phenyl)urea] | 
12 | 870 | > 10000 |  | Cc1noc(C)c1C(=O)CN1c2nc(N3C[C@@H]4C[C@H]3CO4)cc(=O)n2CC[C@H]1C(F)(F)F [Compound 53, (8S)-9-[2-(3,5-dimethylisoxazol-4-yl)-2-oxoethyl]-2-(1S,4S)-2-oxa-5-azabicyclo[2.2.1]hept-5-yl-8-trifluoromethyl-6,7,8,9-tetrahydropyrimido[1,2-a]pyrimidin-4-one] | 
13 | 230 | > 10000 |  | O=C(CN1c2nc(N3C[C@@H]4C[C@H]3CO4)cc(=O)n2CC[C@H]1C(F)(F)F)c1ccc(OC(F)F)cc1 [Compound 37, (S)-9-[2-(4-Difluoromethoxyphenyl)-2-oxoethyl]-2-(1S,4S)-2-oxa-5-azabicyclo[2.2.1]hept-5-yl-8-trifluoromethyl-6,7,8,9-tetrahydropyrimido[1,2-a]pyrimidin-4-one] | 
14 | 82 | > 10000 |  | C[C@@]1(C(F)(F)F)Cn2c(nc(N3C[C@@H]4C[C@H]3CO4)cc2=O)N1CC(=O)c1cccnc1 [Compound 21, 2-methyl-7-(1S,4S)-2-oxa-5-azabicyclo[2.2.1]hept-5-yl-1-(2-oxo-2-pyrid-3-ylethyl)-2-((S)-trifluoromethyl)-2,3-dihydro-1H-imidazo[1,2-a]pyrimidin-5-one] | 
15 | 15 | ≥ 10000 |  | O=C(CN1c2nc(N3C[C@@H]4C[C@H]3CO4)cc(=O)n2CC[C@H]1C(F)(F)F)c1ccncc1 [Compound 2, (8S)-2-(1S,4S)-2-oxa-5-azabicyclo[2.2.1]hept-5-yl-9-(2-oxo-2-pyrid-4-ylethyl)-8-trifluoromethyl-6,7,8,9-tetrahydropyrimido[1,2-a]pyrimidin-4-one] | 
16 | 10 | 2000 |  | Cc1ncsc1CCN1c2nc(N3C[C@@H]4C[C@H]3CO4)cc(=O)n2C[C@@]1(C)C(F)(F)F [Compound 26, 2-methyl-1-[2-(4-methylthiazol-5-yl)ethyl]-7-(1S,4S)-2-oxa-5-azabicyclo[2.2.1]hept-5-yl-2-((S)-trifluoromethyl)-2,3-dihydro-1H-imidazo[1,2-a]pyrimidin-5-one] | 
17 | 3.4 | 2800 |  | CC(=O)N1CCC(CCN2c3nc(N4C[C@@H]5C[C@H]4CO5)cc(=O)n3CC[C@H]2C(F)(F)F)CC1 [Compound 89, (S)-9-[2-(1-Acetylpiperid-4-yl)ethyl]-2-(1S,4S)-2-oxa-5-azabicyclo[2.2.1]hept-5-yl-8-trifluoromethyl-6,7,8,9-tetrahydropyrimido[1,2-a]pyrimidin-4-one] | 
